Assay results taken from US7534914B2, “Substituted methyl aryl or heteroaryl amide compounds” (ReQualia Pharma Inc., priority 2004, dated 2009).
pIC50: −log10 of the molar value.

Target: T1, human EP4 receptors (Homo sapiens, UniProt P35408)
T1 construct: expressed in transfected cells
Assay: cAMP assay in human EP4 transfectant
Format: cell-based
Conditions: HEK293 cells expressing human EP4 receptors, 1 nM PGE2, 0.2 mM IBMX, 37° C. for 10 min
Procedure: cAMP Assay in Human EP4 Transfectant
HEK293 cells expressing human EP4 receptors (hEP4 cells) are maintained in DMEM containing 10% FBS and 500 μg/ml geneticin. For harvesting hEP4 cells, culture medium is aspirated and cells in 75 cm^2 flask are washed with 10 ml of phosphate buffered saline (PBS). Another 10 ml of PBS is added to the cells and incubated for 20 min at room temperature. Human EP4 cells are harvested by pipetting and centrifuged at 300×g for 4 min. Cells are resuspended in DMEM without neutral red at a density of 7×10^5 cells/ml containing 0.2 mM IBMX (PDE inhibitor), 1 nM PGE2 and test compounds in PCR-tubes, and incubated at 37° C. for 10 min. The reaction is stopped by heating at 100° C. for 10 min with thermal cycler. Concentration of cAMP in reaction mixtures is determined with SPA cAMP Kit (Amersham) or cAMP Screen™ (Applied Biosystems) according to the manufacture's instruction. • Reference: Eur. J. Pharmacol. 340 (1997) 227-241. In Vivo Assays Carrageenan Induced Mechanical Hyperalgesia in Rats: […]

T1 sequence (P35408 whole entry): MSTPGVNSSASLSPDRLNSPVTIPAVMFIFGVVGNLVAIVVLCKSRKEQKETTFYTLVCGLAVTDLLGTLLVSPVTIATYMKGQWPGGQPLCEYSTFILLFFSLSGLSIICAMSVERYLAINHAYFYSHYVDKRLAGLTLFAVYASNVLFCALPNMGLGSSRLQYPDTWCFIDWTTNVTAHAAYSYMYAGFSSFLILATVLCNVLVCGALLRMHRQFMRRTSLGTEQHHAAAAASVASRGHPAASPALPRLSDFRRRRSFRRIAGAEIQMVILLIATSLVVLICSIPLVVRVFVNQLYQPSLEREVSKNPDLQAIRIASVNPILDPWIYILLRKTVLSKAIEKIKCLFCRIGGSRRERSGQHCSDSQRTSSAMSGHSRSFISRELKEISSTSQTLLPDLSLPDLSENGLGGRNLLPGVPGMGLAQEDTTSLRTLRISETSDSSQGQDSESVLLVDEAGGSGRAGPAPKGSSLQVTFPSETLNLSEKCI

| pIC50 | SMILES |
| --- | --- |
| 7.72 | C[C@H](NC(=O)c1cc(Cl)ccc1COc1ccccc1Cl)c1ccc(C(=O)O)cc1 [EXAMPLE 1, 4-[(1S)-1-({5-chloro-2-[(2-chlorophenoxy)methyl]benzoyl}amino)ethyl]benzoic Acid] |
| 7.96 | C[C@H](NC(=O)c1cc(Cl)ccc1COc1cccc(Cl)c1)c1ccc(C(=O)O)cc1 [EXAMPLE 2, 4-[(1S)-1-({5-chloro-2-[(3-chlorophenoxy)methyl]benzoyl}amino)ethyl]benzoic Acid] |
| 8.12 | C[C@H](NC(=O)c1cc(Cl)ccc1COc1ccc(Cl)cc1)c1ccc(C(=O)O)cc1 [EXAMPLE 3, 4-[(1S)-1-({5-chloro-2-[(4-chlorophenoxy)methyl]benzoyl}amino)ethyl]benzoic Acid] |
| 7.82 | C[C@H](NC(=O)c1cc(Cl)ccc1COc1ccc(F)cc1)c1ccc(C(=O)O)cc1 [EXAMPLE 4, 4-[(1S)-1-({5-chloro-2-[(4-fluorophenoxy)methyl]benzoyl}amino)ethyl]benzoic Acid] |
| 7.64 | C[C@H](NC(=O)c1cc(Cl)ccc1COc1cccc(F)c1)c1ccc(C(=O)O)cc1 [EXAMPLE 5, 4-[(1S)-1-({5-chloro-2-[(3-fluorophenoxy)methyl]benzoyl}amino)ethyl]benzoic Acid] |
| 7.52 | C[C@H](NC(=O)c1cc(Cl)ccc1COc1ccccc1F)c1ccc(C(=O)O)cc1 [EXAMPLE 6, 4-[(1S)-1-({5-chloro-2-[(2-fluorophenoxy)methyl]benzoyl}amino)ethyl]benzoic Acid] |
| 7.82 | C[C@H](NC(=O)c1cc(Cl)ccc1COc1cccc(F)c1F)c1ccc(C(=O)O)cc1 [EXAMPLE 7, 4-[(1S)-1-({5-chloro-2-[(2,3-difluorophenoxy)methyl]benzoyl}amino)ethyl]benzoic Acid] |
| 7.77 | C[C@H](NC(=O)c1cc(Cl)ccc1COc1ccc(F)cc1F)c1ccc(C(=O)O)cc1 [EXAMPLE 8, 4-[(1S)-1-({5-chloro-2-[(2,4-difluorophenoxy)methyl]benzoyl}amino)ethyl]benzoic Acid] |
| 7.39 | C[C@H](NC(=O)c1cc(Cl)ccc1COc1cc(F)ccc1F)c1ccc(C(=O)O)cc1 [EXAMPLE 9, 4-[(1S)-1-({5-chloro-2-[(2,5-difluorophenoxy)methyl]benzoyl}amino)ethyl]benzoic Acid] |
| 7.62 | C[C@H](NC(=O)c1cc(Cl)ccc1COc1c(F)cccc1F)c1ccc(C(=O)O)cc1 [EXAMPLE 10, 4-[(1S)-1-({5-chloro-2-[(2,6-difluorophenoxy)methyl]benzoyl}amino)ethyl]benzoic Acid] |
| 7.80 | C[C@H](NC(=O)c1cc(Cl)ccc1COc1ccc(F)c(F)c1)c1ccc(C(=O)O)cc1 [EXAMPLE 11, 4-[(1S)-1-({5-chloro-2-[(3,4-difluorophenoxy)methyl]benzoyl}amino)ethyl]benzoic Acid] |
| 7.66 | C[C@H](NC(=O)c1cc(Cl)ccc1COc1cc(F)cc(F)c1)c1ccc(C(=O)O)cc1 [EXAMPLE 12, 4-[(1S)-1-({5-chloro-2-[(3,5-difluorophenoxy)methyl]benzoyl}amino)ethyl]benzoic Acid] |
| 8.08 | Cc1ccc(OCc2ccc(Cl)cc2C(=O)N[C@@H](C)c2ccc(C(=O)O)cc2)cc1 [EXAMPLE 13, 4-[(1S)-1-({5-chloro-2-[(4-methylphenoxy)methyl]benzoyl}amino)ethyl]benzoic Acid] |
| 6.42 | C[C@H](NC(=O)c1cc(Cl)ccc1COc1cncc(F)c1)c1ccc(C(=O)O)cc1 [EXAMPLE 14, 4-{(1S)-1-[(5-chloro-2-{[(5-fluoropyridin-3-yl)oxy]methyl}benzoyl)amino]ethyl}benzoic Acid] |
| 6.80 | C[C@H](NC(=O)c1cc(Cl)ccc1COc1cncc(Cl)c1)c1ccc(C(=O)O)cc1 [EXAMPLE 15, 4-{(1S)-1-[(5-chloro-2-{[(5-chloropyridin-3-yl)oxy]methyl}benzoyl)amino]ethyl}benzoic Acid] |
| 6.33 | C[C@H](NC(=O)c1cc(Cl)ccc1COC1CCCC1)c1ccc(C(=O)O)cc1 [EXAMPLE 16, 4-[(1S)-1-({5-chloro-2-[(cyclopentyloxy)methyl]benzoyl}amino)ethyl]benzoic Acid] |
| 7.66 | C[C@H](NC(=O)c1cc(Cl)cnc1COc1ccc(Cl)cc1)c1ccc(C(=O)O)cc1 [EXAMPLE 18, 4-{(1S)-1-[({5-chloro-2-[(4-chlorophenoxy)methyl]pyridin-3-yl}carbonyl)amino]ethyl}benzoic Acid] |
| 6.66 | CNC(=O)c1cccc(OCc2ccc(Cl)cc2C(=O)N[C@@H](C)c2ccc(C(=O)O)cc2)c1 [EXAMPLE 19, 4-((1S)-1-{[5-chloro-2-({3-[(methylamino)carbonyl]phenoxy}methyl)benzoyl]amino}ethyl)benzoic Acid] |
| 7.77 | C[C@H](NC(=O)c1cc(Cl)cnc1COc1cccc(Cl)c1)c1ccc(C(=O)O)cc1 [EXAMPLE 20, 4-{(1S)-1-[({5-chloro-2-[(3-chlorophenoxy)methyl]pyridin-3-yl}carbonyl)amino]ethyl}benzoic Acid] |
| 7.32 | C[C@H](NC(=O)c1cc(F)cnc1COc1ccc(Cl)cc1)c1ccc(C(=O)O)cc1 [EXAMPLE 21, 4-{(1S)-1-[({2-[(4-chlorophenoxy)methyl]-5-fluoropyridin-3-yl}carbonyl)amino]ethyl}benzoic Acid] |
| 7.17 | C[C@H](NC(=O)c1cc(Cl)ccc1CN(C)c1ccc(Cl)cn1)c1ccc(C(=O)O)cc1 [EXAMPLE 22, 4-{(1S)-1-[(5-chloro-2-{[(5-chloropyridin-2-yl)(methyl)amino]methyl}benzoyl)amino]ethyl}benzoic Acid] |
| 8.00 | C[C@H](NC(=O)c1cc(Cl)ccc1COCC1CCCCC1)c1ccc(C(=O)O)cc1 [EXAMPLE 23, 4-{(1S)-1-({5-chloro-2-[(cyclohexylmethoxy)methyl]benzoyl}amino)ethyl}benzoic Acid] |
| 6.92 | C[C@H](NC(=O)c1cc(Cl)ccc1COCC(C)(C)C)c1ccc(C(=O)O)cc1 [EXAMPLE 24, 4-{(1S)-1-({5-chloro-2-[(2,2-dimethylpropoxy)methyl]benzoyl}amino)ethyl}benzoic Acid] |
| 6.64 | C[C@H](NC(=O)c1cc(Cl)ccc1CN(C)c1ccc(F)cn1)c1ccc(C(=O)O)cc1 [EXAMPLE 25, 4-{(1S)-1-[(5-chloro-2-{[(5-fuluoropyridin-2-yl)(methyl)amino]methyl}benzoyl)amino]ethyl}benzoic Acid] |
| 7.25 | C[C@H](NC(=O)c1cc(Cl)cnc1COc1cccc(F)c1)c1ccc(C(=O)O)cc1 [EXAMPLE 26, 4-{(1S)-1-[({5-chloro-2-[(3-fluorophenoxy)methyl]pyridin-3-yl}carbonyl)amino]ethyl}benzoic Acid] |
| 7.04 | C[C@H](NC(=O)c1cc(Cl)cnc1COc1ccc(F)cc1)c1ccc(C(=O)O)cc1 [EXAMPLE 27, 4-{(1S)-1-[({5-chloro-2-[(4-fluorophenoxy)methyl]pyridin-3-yl}carbonyl)amino]ethyl}benzoic Acid] |

| SMILES | pIC50 |
| --- | --- |
| CC(C)COCc1ccc(Cl)cc1C(=O)N[C@@H](C)c1ccc(C(=O)O)cc1 [EXAMPLE 17, 4-((1S)-1-{[5-chloro-2-(isobutoxymethyl)benzoyl]amino}ethyl)benzoic Acid] | 6.74 |
